From patent US20260193668A1, “NOVEL PEPTIDES AND USE THEREOF FOR MODULATING PROTEIN ACCUMULATION” (UNIVERSITE TOULOUSE III - PAUL SABATIER, priority 2022, published 2026)

Experiments:
AP2 = experiment: Quantification of AP2 by Western blot in A. thaliana leaves; type: in vivo, Arabidopsis thaliana; conditions: A. thaliana leaves treated for 5 days with 100 μM peptide
Protocol: (§1) (a) Schematic representation of a gene encoding altORFs producing altPEPs. (b) ORF ranking distribution of altPEPs detected by MS. (c) Frequency of altPEPs detected by MS by length ranges. (d) Main root length of A. thaliana seedlings treated with 100 μM peptide for 4 days. (e, f) Quantification of DCL1 expression by RT-qPCR (e) and Western blot using anti-DCL1 antibodies (f) in A. thaliana leaves treated for 5 days with 100 μM peptide. (g, h) Quantification of COI1, AP2, CPK3 (g) and EIN2 (h) by Western blot using specific antibodies in A. thaliana leaves treated for 5 days with 100 μM peptide.
(§2) N. benthamiana plants were treated by spraying the leaves 24 h before harvesting. For Luc assays, 100 μL of MS/2 liquid medium containing the peptides was added to each well. 5 μL of luciferin was added and luciferase activity was read 30 min later using a spectrophotometer. All other assays were performed by spraying or watering the plants. To quantify the protein level induced by cPEPs in Arabidopsis, rosettes were sprayed daily with 100 μM of peptide or its control for 5 days. Leaves were harvested 6 h after the last treatment for western blot analysis. […] Chlorophyll content was measured using the SPAD chlorophylometer (Konica Minolta). Leaf area was measured using ImageJ software. […]

AP2 mRNA = experiment: Quantification by qRT PCR of AP2 expression in treated plants; type: in vivo, Arabidopsis thaliana; conditions: 100 μM peptide
Protocol: (§3) Quantification by qRT PCR of the expression of different genes in response to 100 μM of different peptides
(§4) (a) Treatment of plants with the peptide AtCOI1alt1; (b) Treatment of plants with the peptide AtAP2alt1; (c) Treatment of plants with the peptide AtEIN2alt1 (d) Treatment of plants with the peptide AtCPK3alt1.
(§5) Quantification of mRNAs was performed by qRT-PCR using appropriate primer pairs selected from the sequences: SEQ ID NOs: 367 to 374. Expression levels for the controls were set at 100. The primers used for the A. euteiches assays are described in Camborde et al (New Phytol. 233:2232-2248. 2022).

DCL1 mRNA = experiment: Quantification of DCL1 expression by RT-qPCR in A. thaliana leaves; type: in vivo, Arabidopsis thaliana; conditions: A. thaliana leaves treated for 5 days with 100 μM peptide
Protocol: as §1, §5
N. benthamiana plants were treated by spraying the leaves 24 h before harvesting. […] 5 μL of luciferin was added and luciferase activity was read 30 min later using a spectrophotometer. […] To quantify the protein level induced by cPEPs in Arabidopsis, rosettes were sprayed daily with 100 μM of peptide or its control for 5 days. […] Chlorophyll content was measured using the SPAD chlorophylometer (Konica Minolta). Leaf area was measured using ImageJ software. […]

DCL1 = experiment: Western blot using anti-DCL1 antibodies in A. thaliana leaves; type: in vivo, Arabidopsis thaliana; conditions: A. thaliana leaves treated for 5 days with 100 μM peptide
Protocol: as §1, §2

A. thaliana seedlings [1] = experiment: Main root length of A. thaliana seedlings treated with altPEP; type: in vivo, Arabidopsis thaliana; conditions: A. thaliana seedlings treated with 100 μM peptide for 4 days
Protocol: as §1
To study the biological roles of altPEPs, two types of altPEPs were studied: one well conserved among Brassicaceae, and corresponding to the altORF18 of the DCL1 gene (FIG. 3c), and another, corresponding to the first altORF of the COI1 gene, but not conserved among Brassicaceae. A. thaliana seedlings were treated with the peptide AtDCL1alt18 (SEQ ID NO: 224) and root development analysed, since dcl mutants show longer main roots (Park, W., et al. Curr. Biol. 12, 1484-1495 (2002)).

EIN2 mRNA = experiment: Quantification by qRT PCR of EIN2 expression in treated plants; type: in vivo, Arabidopsis thaliana; conditions: 100 μM peptide
Protocol: as §3, §4, §5

EIN2 = experiment: Quantification of EIN2 by Western blot in A. thaliana leaves; type: in vivo, Arabidopsis thaliana; conditions: A. thaliana leaves treated for 5 days with 100 μM peptide
Protocol: as §1, §2

A. thaliana seedlings [2] = experiment: Length of primary roots of A. thaliana seedlings treated with cPEP; type: in vivo, Arabidopsis thaliana; conditions: versus Scrambled cPEPdcl1
Protocol: (§6) (a, b) Length of primary roots of A. thaliana seedlings treated with a Scrambled cPEPdcl1 or with a cPEPdcl1. (c) Relative chlorophyll content of A. thaliana seedlings treated with the corresponding peptide. (d) Resumption of growth of A. thaliana seedlings after heat shock at 45° C. for 45 min and treated with the corresponding peptide. (e) Relative lesion area of A. thaliana seedlings infected with B. cinerea and treated with the indicated peptide. (f) Measurement of the flowering day of A. thaliana plants treated with the indicated peptides. (g, h) Flowering day of A. thaliana plants treated with an irrelevant peptide or a mixture of cPEPs (targeting EIN2, BR11, BAK1 and WUS). (i, j) Leaf area of A. thaliana plants treated with an irrelevant peptide or a mixture of cPEPs (targeting EIN2, BR11, BAK1 and WUS).
The work then focused on different A. thaliana proteins involved in different plant functions. […] 12:479-492, 2000), improved the viability of seedlings to heat shock (FIG. 7d). In parallel, several A. thaliana plant defence regulators were targeted, namely AGB1 (SEQ ID NO: 195), MAPKKK3 (SEQ ID NO: 187), JAR1 (SEQ ID NO: 192), MAPKKK5 (SEQ ID NO: 188), ABCG34 (SEQ ID NO: 194) and CPK3 (SEQ ID NO: 162). […] Next, several cPEPs were designed targeting different proteins involved in plant development by measuring the day of flowering. […]

A. thaliana seedlings [3] = experiment: Heat shock resistance test on A. thaliana seedlings; type: in vivo, Arabidopsis thaliana; conditions: 100 μM peptide, 45° C. for 45 min
Protocol: as §6
N. benthamiana plants were treated by spraying the leaves 24 h before harvesting. For Luc assays, 100 μL of MS/2 liquid medium containing the peptides was added to each well. 5 μL of luciferin was added and luciferase activity was read 30 min later using a spectrophotometer. […] To quantify the protein level induced by cPEPs in Arabidopsis, rosettes were sprayed daily with 100 μM of peptide or its control for 5 days. […] Chlorophyll content was measured using the SPAD chlorophylometer (Konica Minolta). Leaf area was measured using ImageJ software. […]

M. truncatula roots = experiment: Quantification of nodules on M. truncatula roots; type: in vivo, Medicago truncatula; conditions: versus irrelevant peptide
Description: (a) FRET-FLIM analysis of the interaction between cPEPnsp1-FAM and NSP1 (left) or NSP1ΔcPEP (right) in planta. (b) qRT-PCR quantification of NSP1 expression in M. truncatula roots treated with cPEPnsp1 or Scrambled cPEPnsp1. (c) GUS quantification of peptide-treated M. truncatula roots carrying the Pro NSP1-NSP1-GUS fusion. (d, e) Quantification of NSP1 expression in N. benthamiana leaves after infiltration of different constructs: ‘wild type’ i.e. version of NSP1 wherein the cPEP sequence has been deleted (NSP1 ΔcPEP) or version of NSP1 wherein the cPEP sequence has been replaced by an artificial sequence (NSP1 ΔcPEP-cPEPartificial), with an empty vector (control) or cPEPnsp1 or cPEPartificial. (f, g) Formation of lateral roots of M. truncatula WT seedlings, nsp1 or overexpressing NSP1, in response to cPEPnsp1 or Scrambled cPEPnsp1. (h, i) Quantification of nodules on roots of M. truncatula roots treated with an irrelevant peptide or cPEPskl. […]
In order to verify whether cPEPs can target any protein, the activity of 12 cPEPs targeting 12 different proteins for which antibodies were available was studied and validated in three different plant species. The question was whether the increase in the quantity of proteins observed after treatment with cPEP was sufficient to modulate plant development. […]

## AtAP2alt1 (MGISYLGLWETSLLRWI; AtAP2alt1)
AP2
  AP2 protein level (Western blot): increase
AP2 mRNA
  AP2 mRNA expression (qRT PCR): without detecting any change

## AtDCL1alt18 (MLMLNPPRHHGILQRPTCLSLLLTIRLWNP; AtDCL1alt18)
DCL1 mRNA
  DCL1 mRNA expression (qRT-PCR): no effect
DCL1
  DCL1 protein accumulation (Western blot): increased
A. thaliana seedlings [1]
  root development (main root length): decrease in root development

## AtEIN2alt1 (MGCKYRRRCSFRV; AtEIN2alt1)
EIN2 mRNA
  EIN2 mRNA expression (qRT PCR): without detecting any change
EIN2
  EIN2 protein level (Western blot): increase

## cPEPdcl1 (SRAFGSVFFSGD; cPEPdcl1)
A. thaliana seedlings [2]
  primary root growth: reduction

## cPEPhsp101 (MQDMLNSLLCI; cPEPhsp101) [SEQ ID NO: 404, cPEP targeting the A. thaliana HSP101 protein]
A. thaliana seedlings [3]
  viability of seedlings to heat shock: improved

## cPEPskl (TETVGHEDAS; cPEPskl)
M. truncatula roots
  amount of nodules: decrease
